Source: ChEMBL document CHEMBL6177956, “Discovery of first-in-class human glycolate oxidase near infrared molecular rotor inhibitors (NIRGOi)” (Eur J Med Chem, 2025)

How the values were obtained:
2-Hydroxyacid oxidase 2 [1] = target: T1, 2-Hydroxyacid oxidase 2 (Rattus norvegicus, UniProt Q07523); experiment: Inhibition of rat LCHAO using 2-hydroxyoctanoate as substrate incubated for 30 mins by Amplex Red reagent based fluorometric analysis; type: toxicity
T1 sequence (Q07523 whole entry): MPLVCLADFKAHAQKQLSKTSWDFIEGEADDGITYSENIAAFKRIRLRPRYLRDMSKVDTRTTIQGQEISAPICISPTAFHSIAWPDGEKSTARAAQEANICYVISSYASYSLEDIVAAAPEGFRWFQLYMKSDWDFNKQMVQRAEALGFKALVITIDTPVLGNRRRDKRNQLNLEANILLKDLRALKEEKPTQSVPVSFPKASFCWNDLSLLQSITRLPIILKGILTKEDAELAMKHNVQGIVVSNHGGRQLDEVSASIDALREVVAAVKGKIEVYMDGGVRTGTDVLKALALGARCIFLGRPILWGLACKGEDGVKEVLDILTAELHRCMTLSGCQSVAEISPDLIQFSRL

2-Hydroxyacid oxidase 2 [2] = target: T1, 2-Hydroxyacid oxidase 2; experiment: Binding affinity to rat LCHAO by Amplex Red reagent based fluorescence analysis; type: toxicity

| SMILES | IC50 (2-Hydroxyacid oxidase 2 [1]) | Kd (2-Hydroxyacid oxidase 2 [2]) |
| --- | --- | --- |
| CC1(C)C(/C=C/c2ccc(O)c(C(=O)O)c2)=[N+](CCC(=O)O)c2ccc3ccccc3c21 | 36.7 µM | 3.2 µM |
| N#CC(C#N)=C1C=C(/C=C/c2ccc(O)c(C(=O)O)c2)Oc2ccccc21 | > 500 µM | > 1000 µM |
| O=C(O)c1cc(/C=C/C2=CC(=C3C(=O)c4ccccc4C3=O)c3ccccc3O2)ccc1O | 248 µM | 462 µM |
